According to patent US12384797B2, “Thioeno[3,2-b] pyridin-7-amine compounds for treating familial dysautonomia” (PTC THERAPEUTICS, INC., priority 2019, dated 2025):

Test system: Elongator complex protein 1 (ELP1, also referred to as IKBKAP)
Experiment: IKBKAP-HTRF assay (IKBKAP protein in lysates of FD patient-derived fibroblasts)
Assay type: cell-based, human
Conditions: 48 hours incubation, 7-point concentration curve
Experimental: The assay is used for the quantitative determination of Elongator complex protein 1 (ELP1, also referred to as IKBKAP) concentration in cell lysates using the HTRF® (Homogeneous Time-Resolved Fluorescence) technology. IKBKAP is detected in a sandwich HTRF assay by use of an anti-IKAP antibody labeled with a donor and an anti-IKAP antibody labeled with an acceptor.
Cells were thawed and incubated in DMEM-10% FBS for 72 hours. Cells were trypsinized, counted, and re-suspended to a concentration of 50,000 cells/mL in DMEM-10% FBS. A 199 μL aliquot of the cell suspensions were plated at 10,000 cells per well in a 96 well microtiter plate and incubated for 3 to 5 hours. […] Test compounds were serially diluted 3.16-fold in 100% DMSO to generate a 7-point concentration curve. A 1 μL aliquot of 200× compound solution was transferred to cell-containing wells, and cells were incubated for 48 hours in a cell culture incubator (37° C., 5% CO2, 100% relative humidity). Triplicate samples were set up for each compound concentration. After 48 hours, the supernatant was removed from the cells and 50 μL of the 1×LB4 lysis buffer, containing protease inhibitors, was added to the cells and incubated with shaking at room temperature for 1 hour. A 36 μL aliquot of this lysate was subsequently transferred to the 384-well plate containing 4 μL of the antibody solution (1:50 dilution of anti IKAP d2 and anti-IKAP K(9+8) in detection buffer). The 384-well plate was then centrifuged for 1 minute to bring the solutions to the bottom of the plate and incubated overnight at 4° C. Fluorescence for each well of the plate at 665 nm and 620 nm was measured was on the EnVision plate reader (Perkin Elmer). The ΔF for each sample is calculated by:
[formula] wherein Signal is the normalized fluorescence for each sample well and Blank is the average normalized average fluorescence for the Blank control wells.
The maximum fold increase (MFI) in IKBKAP protein abundance for compounds of Formula (I) or a form thereof relative to the vehicle control are provided in Table 1. MFI was calculated by dividing the ΔF value for each sample well by the sample ΔF for the vehicle control wells.
The EC2x for IKBKAP protein expression obtained from the 7-point concentration curve generated for each test compound according to the protocol in Biological Example 1 are also provided in Table 1. The term “EC2x for IKBKAP protein expression” is defined as the concentration of test compound that is effective in producing two times the amount of IKBKAP protein in a FD patient cell compared to the amount produced from the DMSO vehicle control.

Question: Which “EC2x for IKBKAP protein expression (concentration producing two times the amount of IKBKAP protein vs DMSO vehicle control)” value does the source give for `N#Cc1csc2c(NCc3ccco3)cc(Cl)nc12` [Compound 14, 5-chloro-7-{[(furan-2-yl)methyl]amino}thieno[3,2-b]pyridine-3-carbonitrile] here?
Answer: Its value is “*** (between >0.02 μM and ≤0.5 μM is indicated by three stars (***))”.

Question: What about the “MFI (maximum fold increase in IKBKAP protein abundance relative to the vehicle control)” value of the same compound?
Answer: The value was “***** (>4.9 is indicated by five stars (*****))”.

Question: Which results are given for `N#Cc1cc(NCc2ccco2)c2scc(C#N)c2n1` [Compound 15, 7-{[(furan-2-yl)methyl]amino}thieno[3,2-b]pyridine-3,5-dicarbonitrile]?
Answer: EC2x for IKBKAP protein expression (concentration producing two times the amount of IKBKAP protein vs DMSO vehicle control): * (An EC2x>1 μM is indicated by one star (*)); MFI (maximum fold increase in IKBKAP protein abundance relative to the vehicle control): * (An MFI≤1.9 is indicated by one star (*))

Question: `C[C@H](N)Cc1cc2nc(Cl)cc(NCc3ccco3)c2s1` [Compound 16, 2-[(2S)-2-aminopropyl]-5-chloro-N-[(furan-2-yl)methyl]thieno[3,2-b]pyridin-7-amine] was tested. Which “EC2x for IKBKAP protein expression (concentration producing two times the amount of IKBKAP protein vs DMSO vehicle control)” value did it give?
Answer: The value was “***** (≤0.005 μM is indicated by five stars (*****))”.

Question: What about the “MFI (maximum fold increase in IKBKAP protein abundance relative to the vehicle control)” value of the same compound?
Answer: The value was “**** (between >3.9 and ≤4.9 is indicated by four stars (****))”.

Question: `N[C@@H](CO)Cc1cc2nc(Cl)cc(NCc3ccco3)c2s1` [Compound 17, (2R)-2-amino-3-(5-chloro-7-{[(furan-2-yl)methyl]amino}thieno[3,2-b]pyridin-2-yl)propan-1-ol] was tested. Which “EC2x for IKBKAP protein expression (concentration producing two times the amount of IKBKAP protein vs DMSO vehicle control)” value did it give?
Answer: The value was “***** (≤0.005 μM is indicated by five stars (*****))”.

Question: What about the “MFI (maximum fold increase in IKBKAP protein abundance relative to the vehicle control)” value of the same compound?
Answer: Its value is “**** (between >3.9 and ≤4.9 is indicated by four stars (****))”.

Question: Which results are given for `Cc1c(C[C@H](C)N)sc2c(NCc3ccco3)cc(Cl)nc12` [Compound 18, 2-[(2S)-2-aminopropyl]-5-chloro-N-[(furan-2-yl)methyl]-3-methylthieno[3,2-b]pyridin-7-amine]?
Answer: EC2x for IKBKAP protein expression (concentration producing two times the amount of IKBKAP protein vs DMSO vehicle control): ***** (≤0.005 μM is indicated by five stars (*****)); MFI (maximum fold increase in IKBKAP protein abundance relative to the vehicle control): ***** (>4.9 is indicated by five stars (*****))

Question: For `CC[C@H](N)Cc1sc2c(NCc3ccco3)cc(Cl)nc2c1C` [Compound 19, 2-[(2S)-2-aminobutyl]-5-chloro-N-[(furan-2-yl)methyl]-3-methylthieno[3,2-b]pyridin-7-amine], which “EC2x for IKBKAP protein expression (concentration producing two times the amount of IKBKAP protein vs DMSO vehicle control)” value is on record?
Answer: The value was “***** (≤0.005 μM is indicated by five stars (*****))”.

Question: What about the “MFI (maximum fold increase in IKBKAP protein abundance relative to the vehicle control)” value of the same compound?
Answer: Its value is “***** (>4.9 is indicated by five stars (*****))”.

Question: Which “EC2x for IKBKAP protein expression (concentration producing two times the amount of IKBKAP protein vs DMSO vehicle control)” value does the source give for `Cc1c(C[C@H](C)N)sc2c(NCc3ccco3)cc(C#N)nc12` [Compound 20, 2-[(2S)-2-aminopropyl]-7-{[(furan-2-yl)methyl]amino}-3-methylthieno[3,2-b]pyridine-5-carbonitrile] here?
Answer: The value was “***** (≤0.005 μM is indicated by five stars (*****))”.

Question: What about the “MFI (maximum fold increase in IKBKAP protein abundance relative to the vehicle control)” value of the same compound?
Answer: The value was “***** (>4.9 is indicated by five stars (*****))”.

Question: With `Cc1c([C@H](C)N)sc2c(NCc3ccco3)cc(Cl)nc12` [Compound 21, 2-[(1S)-1-aminoethyl]-5-chloro-N-[(furan-2-yl)methyl]-3-methylthieno[3,2-b]pyridin-7-amine] as the compound, how does the “EC2x for IKBKAP protein expression (concentration producing two times the amount of IKBKAP protein vs DMSO vehicle control)” value read?
Answer: Its value is “**** (between >0.005 μM and ≤0.02 μM is indicated by four stars (****))”.

Question: What about the “MFI (maximum fold increase in IKBKAP protein abundance relative to the vehicle control)” value of the same compound?
Answer: Its value is “**** (between >3.9 and ≤4.9 is indicated by four stars (****))”.

Question: What does the source list for `Cc1c([C@@H](C)N)sc2c(NCc3ccco3)cc(Cl)nc12` [Compound 22, 2-[(1R)-1-aminoethyl]-5-chloro-N-[(furan-2-yl)methyl]-3-methylthieno[3,2-b]pyridin-7-amine]?
Answer: EC2x for IKBKAP protein expression (concentration producing two times the amount of IKBKAP protein vs DMSO vehicle control): * (An EC2x>1 μM is indicated by one star (*)); MFI (maximum fold increase in IKBKAP protein abundance relative to the vehicle control): ** (between >1.9 and ≤2.9 is indicated by two stars (**))

Question: With `C[C@@H](N)c1cc2nc(Cl)cc(NCc3ccco3)c2s1` [Compound 23, 2-[(1R)-1-aminoethyl]-5-chloro-N-[(furan-2-yl)methyl]thieno[3,2-b]pyridin-7-amine] as the compound, how does the “EC2x for IKBKAP protein expression (concentration producing two times the amount of IKBKAP protein vs DMSO vehicle control)” value read?
Answer: Its value is “* (An EC2x>1 μM is indicated by one star (*))”.

Question: And the “MFI (maximum fold increase in IKBKAP protein abundance relative to the vehicle control)” value?
Answer: The value was “** (between >1.9 and ≤2.9 is indicated by two stars (**))”.

Question: How did the “EC2x for IKBKAP protein expression (concentration producing two times the amount of IKBKAP protein vs DMSO vehicle control)” value turn out when `C[C@H](N)c1cc2nc(Cl)cc(NCc3ccco3)c2s1` [Compound 24, 2-[(1S)-1-aminoethyl]-5-chloro-N-[(furan-2-yl)methyl]thieno[3,2-b]pyridin-7-amine] was run?
Answer: The value was “* (An EC2x>1 μM is indicated by one star (*))”.

Question: What about the “MFI (maximum fold increase in IKBKAP protein abundance relative to the vehicle control)” value of the same compound?
Answer: Its value is “** (between >1.9 and ≤2.9 is indicated by two stars (**))”.

Question: `CNCc1cc2nc(Cl)cc(NCc3ccco3)c2s1` [Compound 25, 5-chloro-N-[(furan-2-yl)methyl]-2-[(methylamino)methyl]thieno[3,2-b]pyridin-7-amine] was tested. Which “EC2x for IKBKAP protein expression (concentration producing two times the amount of IKBKAP protein vs DMSO vehicle control)” value did it give?
Answer: Its value is “*** (between >0.02 μM and ≤0.5 μM is indicated by three stars (***))”.

Question: And the “MFI (maximum fold increase in IKBKAP protein abundance relative to the vehicle control)” value?
Answer: Its value is “*** (between >2.9 and ≤3.9 is indicated by three stars (***))”.

Question: What does the source list for `CN[C@@H](C)c1sc2c(NCc3ccco3)cc(Cl)nc2c1C` [Compound 26, 5-chloro-N-[(furan-2-yl)methyl]-3-methyl-2-[(1S)-1-(methylamino)ethyl]thieno[3,2-b]pyridin-7-amine]?
Answer: EC2x for IKBKAP protein expression (concentration producing two times the amount of IKBKAP protein vs DMSO vehicle control): *** (between >0.02 μM and ≤0.5 μM is indicated by three stars (***)); MFI (maximum fold increase in IKBKAP protein abundance relative to the vehicle control): **** (between >3.9 and ≤4.9 is indicated by four stars (****))

Question: How did the “EC2x for IKBKAP protein expression (concentration producing two times the amount of IKBKAP protein vs DMSO vehicle control)” value turn out when `CNCc1sc2c(NCc3ccco3)cc(Cl)nc2c1C` [Compound 27, 5-chloro-N-[(furan-2-yl)methyl]-3-methyl-2-[(methylamino)methyl]thieno[3,2-b]pyridin-7-amine] was run?
Answer: The value was “*** (between >0.02 μM and ≤0.5 μM is indicated by three stars (***))”.

Question: And the “MFI (maximum fold increase in IKBKAP protein abundance relative to the vehicle control)” value?
Answer: The value was “**** (between >3.9 and ≤4.9 is indicated by four stars (****))”.

Question: With `Cc1c(C[C@H](C)N)sc2c(NCc3cccs3)cc(Cl)nc12` [Compound 28, 2-[(2S)-2-aminopropyl]-5-chloro-3-methyl-N-[(thiophen-2-yl)methyl]thieno[3,2-b]pyridin-7-amine] as the compound, how does the “EC2x for IKBKAP protein expression (concentration producing two times the amount of IKBKAP protein vs DMSO vehicle control)” value read?
Answer: Its value is “***** (≤0.005 μM is indicated by five stars (*****))”.

Question: And the “MFI (maximum fold increase in IKBKAP protein abundance relative to the vehicle control)” value?
Answer: The value was “***** (>4.9 is indicated by five stars (*****))”.

Question: Which “EC2x for IKBKAP protein expression (concentration producing two times the amount of IKBKAP protein vs DMSO vehicle control)” value does the source give for `Cc1c(C[C@H](C)N)sc2c(NCc3ccccc3F)cc(Cl)nc12` [Compound 29, 2-[(2S)-2-aminopropyl]-5-chloro-N-[(2-fluorophenyl)methyl]-3-methylthieno[3,2-b]pyridin-7-amine] here?
Answer: Its value is “***** (≤0.005 μM is indicated by five stars (*****))”.

Question: And the “MFI (maximum fold increase in IKBKAP protein abundance relative to the vehicle control)” value?
Answer: Its value is “***** (>4.9 is indicated by five stars (*****))”.

Question: With `Cc1c([C@@H](N)C(C)C)sc2c(NCc3ccco3)cc(Cl)nc12` [Compound 30, 2-[(1S)-1-amino-2-methylpropyl]-5-chloro-N-[(furan-2-yl)methyl]-3-methylthieno[3,2-b]pyridin-7-amine] as the compound, how does the “EC2x for IKBKAP protein expression (concentration producing two times the amount of IKBKAP protein vs DMSO vehicle control)” value read?
Answer: Its value is “* (An EC2x>1 μM is indicated by one star (*))”.

Question: What about the “MFI (maximum fold increase in IKBKAP protein abundance relative to the vehicle control)” value of the same compound?
Answer: Its value is “* (An MFI≤1.9 is indicated by one star (*))”.

Question: For `Cc1c([C@H](N)C(C)C)sc2c(NCc3ccco3)cc(Cl)nc12` [Compound 31, 2-[(1R)-1-amino-2-methylpropyl]-5-chloro-N-[(furan-2-yl)methyl]-3-methylthieno[3,2-b]pyridin-7-amine], which “EC2x for IKBKAP protein expression (concentration producing two times the amount of IKBKAP protein vs DMSO vehicle control)” value is on record?
Answer: Its value is “* (An EC2x>1 μM is indicated by one star (*))”.

Question: What about the “MFI (maximum fold increase in IKBKAP protein abundance relative to the vehicle control)” value of the same compound?
Answer: Its value is “* (An MFI≤1.9 is indicated by one star (*))”.

Question: Which results are given for `CN[C@H](c1sc2c(NCc3ccco3)cc(Cl)nc2c1C)C(C)C` [Compound 32, 5-chloro-N-[(furan-2-yl)methyl]-3-methyl-2-[(1S)-2-methyl-1-(methylamino)propyl]thieno[3,2-b]pyridin-7-amine]?
Answer: EC2x for IKBKAP protein expression (concentration producing two times the amount of IKBKAP protein vs DMSO vehicle control): * (An EC2x>1 μM is indicated by one star (*)); MFI (maximum fold increase in IKBKAP protein abundance relative to the vehicle control): * (An MFI≤1.9 is indicated by one star (*))
